Read-outs that look alike come from different tables or passages of the source.
Tests used:
AR-S660A-CFTR = biological target: T1, AR-S660A-CFTR (Homo sapiens, UniProt P13569, DEL708-835/S660A); assay: Macroscopic currents in excised HEK-293T patches, R domain deletion mutant, no PKA; format: biochemical; settings: 10 μM
T1 construct: expressed in transfected cells; host or cells: HEK-293T, transient
Method: (§1) Cell culture DNA constructs and transfections. Baby hamster kidney (BHK) cells stably expressing wild type human CFTR (BHK-CFTR) were provided by J. Hanrahan (McGill University). BHK-CFTR cells were cultured in Dulbecco's modified Eagle's medium (DMEM (Mediatech)) supplemented with 5% fetal bovine serum (FBS) and 1 mM penicillin-streptomycin. The growth media for the BHK-CFTR cells also contained 0.5 mM methotrexate to maintain selection for CFTR-expressing cells (22). HEK-293T cells were transiently transfected with wild-type or mutant CFTR cDNA using the Lipofectamine transfection kit following manufacturer's recommendations (Invitrogen, Corp). HEK-293T cells were cultured in DMEM. All cells were grown on plastic coverslips for patch clamp recording and were used 2-3 days post-seeding. Electrophysiology and data analysis. Macroscopic and multi-channel currents were recorded in the excised, inside-out configuration. Patch pipettes were pulled from Corning 8161 glass to tip resistances of […] (macroscopic recordings) or 8-10 mOhm (micropatch studies). CFTR channels were activated following patch excision by exposure of the cytoplasmic face of the patch to catalytic subunit of protein kinase A (PKA; 110 U/ml; Promega) and Mg-ATP (1.5 mM). CFTR currents were recorded in symmetrical solution containing (in mM): 140 N-methyl-D-glucaniine-Cl, 3 MgCl2, 1 EGTA and 10 TES. […]

ΔF508-CFTR = biological target: T2, ΔF508-CFTR (Homo sapiens, UniProt P13569, DEL508-508); assay: Ussing chamber transepithelial chloride currents, temperature-corrected ΔF508-CFTR CFBE41o- monolayers; format: cell-based
T2 construct: expressed in transfected cells; host or cells: HEK-293T, transient; grown at 28° C. for 24 hrs
T2 sequence (P13569 with tags, fused parts or gaps DEL508-508): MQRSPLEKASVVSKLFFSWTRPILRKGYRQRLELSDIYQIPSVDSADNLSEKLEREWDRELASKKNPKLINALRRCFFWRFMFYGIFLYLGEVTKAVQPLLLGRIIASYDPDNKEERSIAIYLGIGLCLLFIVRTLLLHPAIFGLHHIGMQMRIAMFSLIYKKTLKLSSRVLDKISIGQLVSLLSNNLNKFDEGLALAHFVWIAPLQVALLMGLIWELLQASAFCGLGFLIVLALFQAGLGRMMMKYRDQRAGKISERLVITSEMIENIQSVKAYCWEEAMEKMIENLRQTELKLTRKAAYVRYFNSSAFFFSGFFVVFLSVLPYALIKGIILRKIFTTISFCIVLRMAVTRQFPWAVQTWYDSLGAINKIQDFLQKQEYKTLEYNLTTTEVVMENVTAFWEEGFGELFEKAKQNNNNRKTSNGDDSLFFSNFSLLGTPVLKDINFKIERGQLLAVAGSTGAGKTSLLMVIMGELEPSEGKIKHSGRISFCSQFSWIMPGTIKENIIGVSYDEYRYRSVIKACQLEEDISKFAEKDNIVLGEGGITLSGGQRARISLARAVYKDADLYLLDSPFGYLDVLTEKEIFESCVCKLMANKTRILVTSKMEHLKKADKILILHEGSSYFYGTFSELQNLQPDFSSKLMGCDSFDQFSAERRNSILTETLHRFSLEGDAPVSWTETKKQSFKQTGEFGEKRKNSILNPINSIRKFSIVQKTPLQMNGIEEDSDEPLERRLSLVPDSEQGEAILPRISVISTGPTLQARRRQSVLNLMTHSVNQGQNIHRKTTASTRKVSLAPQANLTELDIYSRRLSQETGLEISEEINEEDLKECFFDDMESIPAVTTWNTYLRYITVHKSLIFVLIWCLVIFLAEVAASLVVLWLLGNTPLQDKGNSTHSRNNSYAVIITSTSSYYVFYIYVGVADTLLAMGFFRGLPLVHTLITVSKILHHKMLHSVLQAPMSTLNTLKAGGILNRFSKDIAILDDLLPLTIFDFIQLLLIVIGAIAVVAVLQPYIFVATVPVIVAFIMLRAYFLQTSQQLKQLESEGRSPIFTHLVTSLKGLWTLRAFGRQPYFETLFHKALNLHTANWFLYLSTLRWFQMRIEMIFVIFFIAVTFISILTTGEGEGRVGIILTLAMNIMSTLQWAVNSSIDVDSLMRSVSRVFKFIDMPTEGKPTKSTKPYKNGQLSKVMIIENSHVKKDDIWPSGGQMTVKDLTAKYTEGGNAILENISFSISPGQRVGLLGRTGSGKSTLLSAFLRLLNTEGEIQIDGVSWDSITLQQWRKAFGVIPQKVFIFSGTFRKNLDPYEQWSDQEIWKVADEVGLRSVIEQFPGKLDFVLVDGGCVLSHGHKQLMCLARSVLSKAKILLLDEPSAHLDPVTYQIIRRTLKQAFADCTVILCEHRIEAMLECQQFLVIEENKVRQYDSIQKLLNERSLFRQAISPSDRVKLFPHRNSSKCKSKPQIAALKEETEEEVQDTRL
Method: (§2) Cell culture DNA constructs and transfections. Baby hamster kidney (BHK) cells stably expressing wild type human CFTR (BHK-CFTR) were provided by J. Hanrahan (McGill University). BHK-CFTR cells were cultured in Dulbecco's modified Eagle's medium (DMEM (Mediatech)) supplemented with 5% fetal bovine serum (FBS) and 1 mM penicillin-streptomycin. The growth media for the BHK-CFTR cells also contained 0.5 mM methotrexate to maintain selection for CFTR-expressing cells (22). HEK-293T cells were transiently transfected with wild-type or mutant CFTR cDNA using the Lipofectamine transfection kit following manufacturer's recommendations (Invitrogen, Corp). HEK-293T cells were cultured in DMEM. All cells were grown on plastic coverslips for patch clamp recording and were used 2-3 days post-seeding. Electrophysiology and data analysis. Macroscopic and multi-channel currents were recorded in the excised, inside-out configuration. Patch pipettes were pulled from Corning 8161 glass to tip resistances of […] (macroscopic recordings) or 8-10 mOhm (micropatch studies). CFTR channels were activated following patch excision by exposure of the cytoplasmic face of the patch to catalytic subunit of protein kinase A (PKA; 110 U/ml; Promega) and Mg-ATP (1.5 mM). CFTR currents were recorded in symmetrical solution containing (in mM): 140 N-methyl-D-glucaniine-Cl, 3 MgCl2, 1 EGTA and 10 TES. The pH was adjusted to 7.3. Macroscopic currents were evoked using a ramp protocol from +80 to −80 mV with a 10 sec time period. Patches were held at −80 mV or +80 mV for micropatch (multichannel) recordings. All patch clamp experiments were performed at 21-23° C. Signals from macroscopic and single channel recording were filtered at 20 and 200 Hz, respectively. Data acquisition and analysis were performed using pCLAMP8 and pCLAMP9 software (Axon Instruments). Curve fitting for kinetic analysis was performed using Microcal Origin software. Averaged data are presented as mean +/−SEM. Statistical comparisons were made by performing unpaired t-tests unless otherwise indicated. Ussing Chamber Experiments-CFBE41o epithelial cells stably transfected with ΔF508-CFTR or transiently transfected with wild-type CFTR were cultured as electrically resistive monolayers and assayed in Ussing chambers as described (16). ΔF508-CFTR-expressing monolayers were grown at 27° C. for 2-3 days to enhance the surface expression of this temperature-sensitive mutant. A serosal-to-mucosal Cl^− gradient (120 to 1.2 mM) was imposed, followed by amiloride addition (100 μM) to block Na^+ currents. Compounds were added to both chambers at the indicated concentrations. A 3-mV voltage pulse was imposed every 100 s to monitor transepithelial resistance.

[1] = tested on: parental CFBE41o- monolayers; assay: Ussing chamber transepithelial currents, parental CFBE41o- monolayers; format: cell-based, human; settings: n=6, data not shown
Method: as §1

wild-type CFTR [2] = biological target: T3, wild-type CFTR (Homo sapiens, UniProt P13569); assay: Macroscopic currents in excised inside-out patches from BHK-CFTR cells; format: biochemical; set-up: expressed in transfected cells; provided by J. Hanrahan (McGill University); settings: for EC50: moderately phosphorylated wild-type channels, normalized to peak current at 10 μM, read-out: EC50 of CFTR current stimulation (titration)
T3 sequence (P13569 whole entry): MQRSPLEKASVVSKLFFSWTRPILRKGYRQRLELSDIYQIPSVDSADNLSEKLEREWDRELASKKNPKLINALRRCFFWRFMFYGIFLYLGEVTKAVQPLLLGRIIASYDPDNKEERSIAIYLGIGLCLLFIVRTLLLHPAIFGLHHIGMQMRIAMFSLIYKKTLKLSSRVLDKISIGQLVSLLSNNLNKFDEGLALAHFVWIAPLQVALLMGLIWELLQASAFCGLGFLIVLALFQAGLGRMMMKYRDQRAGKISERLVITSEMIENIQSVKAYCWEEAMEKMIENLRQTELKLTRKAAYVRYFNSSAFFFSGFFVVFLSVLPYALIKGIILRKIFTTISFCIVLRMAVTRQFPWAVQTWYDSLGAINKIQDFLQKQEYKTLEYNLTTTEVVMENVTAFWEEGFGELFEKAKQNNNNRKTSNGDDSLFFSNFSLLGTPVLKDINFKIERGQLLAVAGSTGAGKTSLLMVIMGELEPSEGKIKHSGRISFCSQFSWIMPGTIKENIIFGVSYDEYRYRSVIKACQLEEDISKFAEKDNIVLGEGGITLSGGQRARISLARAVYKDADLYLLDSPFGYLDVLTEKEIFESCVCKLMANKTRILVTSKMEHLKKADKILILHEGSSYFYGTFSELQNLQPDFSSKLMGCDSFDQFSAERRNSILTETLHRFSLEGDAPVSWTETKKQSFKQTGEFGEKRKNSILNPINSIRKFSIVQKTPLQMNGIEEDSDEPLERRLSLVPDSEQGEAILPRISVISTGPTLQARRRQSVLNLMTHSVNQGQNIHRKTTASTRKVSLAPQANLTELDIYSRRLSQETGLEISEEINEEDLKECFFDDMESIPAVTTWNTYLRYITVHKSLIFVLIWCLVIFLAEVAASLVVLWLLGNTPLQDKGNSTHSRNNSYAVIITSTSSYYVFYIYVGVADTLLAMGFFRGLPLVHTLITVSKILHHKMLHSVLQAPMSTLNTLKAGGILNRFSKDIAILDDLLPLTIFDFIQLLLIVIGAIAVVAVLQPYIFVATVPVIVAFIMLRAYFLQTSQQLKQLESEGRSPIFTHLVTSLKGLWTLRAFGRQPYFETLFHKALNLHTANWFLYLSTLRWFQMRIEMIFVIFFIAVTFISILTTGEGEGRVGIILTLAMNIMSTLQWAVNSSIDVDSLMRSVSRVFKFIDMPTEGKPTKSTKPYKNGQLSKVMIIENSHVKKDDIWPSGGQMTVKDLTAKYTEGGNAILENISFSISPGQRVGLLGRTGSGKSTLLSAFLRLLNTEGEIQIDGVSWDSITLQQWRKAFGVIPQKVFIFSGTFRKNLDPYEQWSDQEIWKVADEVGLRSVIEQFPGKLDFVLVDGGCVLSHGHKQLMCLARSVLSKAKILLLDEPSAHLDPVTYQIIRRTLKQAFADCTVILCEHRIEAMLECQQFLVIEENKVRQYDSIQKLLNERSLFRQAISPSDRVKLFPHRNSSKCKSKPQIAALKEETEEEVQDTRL
Method: as §2, with “CFTR channels were activated following patch excision by exposure of the cytoplasmic face of the patch to catalytic subunit of protein kinase A (PKA; 110 U/ml; Promega) and Mg-ATP (1.5 mM).” left out

wild-type CFTR [3] = biological target: T3, wild-type CFTR; assay: Ussing chamber transepithelial chloride currents, wild type CFTR-expressing CFBE41o- monolayers; format: cell-based; set-up: expressed in transfected cells; host or cells: HEK-293T, transient (Lipofectamine); settings: 120 nM to 12 μM
Method: as §1

T1 sequence (P13569 with tags, fused parts or gaps S660A/DEL708-835): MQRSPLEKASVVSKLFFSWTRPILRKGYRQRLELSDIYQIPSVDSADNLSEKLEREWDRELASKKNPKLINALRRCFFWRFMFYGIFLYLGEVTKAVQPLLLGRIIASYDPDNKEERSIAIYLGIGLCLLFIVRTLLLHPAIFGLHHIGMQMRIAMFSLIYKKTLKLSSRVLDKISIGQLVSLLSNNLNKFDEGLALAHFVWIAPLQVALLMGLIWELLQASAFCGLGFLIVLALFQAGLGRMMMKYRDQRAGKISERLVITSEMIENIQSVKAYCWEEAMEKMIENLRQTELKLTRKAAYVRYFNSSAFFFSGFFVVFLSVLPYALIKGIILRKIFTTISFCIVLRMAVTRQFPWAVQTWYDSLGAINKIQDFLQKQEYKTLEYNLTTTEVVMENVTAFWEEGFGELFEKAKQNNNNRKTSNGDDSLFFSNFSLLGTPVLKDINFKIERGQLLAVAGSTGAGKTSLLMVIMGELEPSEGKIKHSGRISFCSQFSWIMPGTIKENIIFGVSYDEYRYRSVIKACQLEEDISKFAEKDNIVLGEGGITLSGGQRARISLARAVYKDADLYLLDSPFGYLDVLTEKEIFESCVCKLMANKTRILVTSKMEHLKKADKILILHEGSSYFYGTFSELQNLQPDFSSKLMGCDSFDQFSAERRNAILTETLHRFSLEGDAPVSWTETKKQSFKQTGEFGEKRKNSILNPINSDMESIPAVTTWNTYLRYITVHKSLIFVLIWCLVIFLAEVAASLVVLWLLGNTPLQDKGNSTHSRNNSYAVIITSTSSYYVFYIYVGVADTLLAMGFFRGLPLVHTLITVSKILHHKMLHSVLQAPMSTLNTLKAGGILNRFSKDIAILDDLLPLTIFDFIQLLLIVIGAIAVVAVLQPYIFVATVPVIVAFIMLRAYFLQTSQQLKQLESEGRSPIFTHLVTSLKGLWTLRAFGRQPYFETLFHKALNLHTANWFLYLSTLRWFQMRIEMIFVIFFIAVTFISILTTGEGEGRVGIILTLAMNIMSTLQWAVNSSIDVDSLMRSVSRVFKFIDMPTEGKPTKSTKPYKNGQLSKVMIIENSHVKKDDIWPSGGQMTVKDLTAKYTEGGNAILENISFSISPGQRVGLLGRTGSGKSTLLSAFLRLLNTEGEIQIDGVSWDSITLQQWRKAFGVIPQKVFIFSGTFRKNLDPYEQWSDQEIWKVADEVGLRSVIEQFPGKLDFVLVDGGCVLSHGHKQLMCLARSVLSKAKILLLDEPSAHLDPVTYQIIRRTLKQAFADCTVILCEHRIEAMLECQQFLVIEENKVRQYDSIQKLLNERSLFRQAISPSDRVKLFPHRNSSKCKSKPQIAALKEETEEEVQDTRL

## NC(=O)c1cc([N+](=O)[O-])ccc1NCCCc1ccccc1 [NPPB-Am]
AR-S660A-CFTR
  effect on currents in the absence of PKA: markedly stimulate
ΔF508-CFTR; 120 nM to 12 μM
  effect on transepithelial currents without cAMP agonist: stimulated the transepithelial currents
ΔF508-CFTR; 1 μM compound with 1 μM forskolin, N=8-12
  potentiation of the forskolin effect on ΔF508-CFTR transepithelial currents: markedly potentiated the effect of forskolin
ΔF508-CFTR; prior treatment with H89 100 μM, n=4, monolayer type (wild-type or ΔF508) not stated
  stimulated transepithelial current with H89: 5.5+/−1.3 μA/cm^2
ΔF508-CFTR; −H89, n=4, monolayer type (wild-type or ΔF508) not stated
  stimulated transepithelial current without H89: 23.3+/−2.0 μA/cm^2
[1]
  increase in transepithelial current: 1.1+/−2.7 μA/cm^2
wild-type CFTR [2]
  relative stimulation as a function of CFTR phosphorylation: greater relative stimulatory effect on poorly phosphorylated CFTR channels
  time course and reversibility of the stimulation of CFTR current: rapid, stable and quickly reversible upon wash out
  voltage dependence of the stimulation of CFTR current: voltage-independent with no evidence for CFTR inhibition at any holding potential
  EC50: 710 nM
wild-type CFTR [2]; 125 nM, mean titration data, n=8
  increase of the current: approximately 20%
wild-type CFTR [2]; 250 nM, representative patch
  increase of the current: 25%
wild-type CFTR [2]; 10 μM
  effect on currents of poorly phosphorylated or thiolated CFTR channels: effectively stimulated the currents
wild-type CFTR [2]; 10 μM, high PKA followed by PKI
  effect on currents of moderately phosphorylated wild-type channels: stimulates currents in both directions
wild-type CFTR [2]; Mg-ATP titration with and without compound, data not shown
  effect on the Mg-ATP sensitivity of CFTR activity: no obvious effect
wild-type CFTR [2]; listed as NPPB-AM
  EC50: 960 nM
wild-type CFTR [2]; titration experiments
  lowest concentration with detectable increases in CFTR currents: 250 nM
wild-type CFTR [3]
  effect on transepithelial currents without cAMP agonist: stimulated the transepithelial currents
